What was measured:
[1] = Stability in buffer solutions pH 2 to pH 8 at 25° C.; assay type: physicochemical
Protocol: Stability in buffer solutions pH 2 to pH 8 at 25° C., and in bio-relevant media (SGF pH 1.6, Fasted SIF pH 6.5 and Fed SIF pH 5.0) at 37° C., during 24 hours is monitored. The samples are analysed by LC/MS.
Buffer Solutions and Physiologically Relevant Media Used in Stability Assay:
LC Conditions: Instrument HP1100
Column: Waters XBridge C18, 2.1×50 mm, 3.5 μm
Guard column: Waters XBridge C18, 2.1×10 mm, 3.5 μm
• A) 0.1% HCOOH/H2O • B) 0.1% HCOOH/CH3CN Gradient Timetable: […]
Flow: 0.3 mL/min Column temp.: 25° C. Sample temp.: 25° C. (for stability assay in buffer solutions) • 37° C. (for stability assay in bio-relevant media) Injector volume: 3 μL (without injection program) MS Conditions: Instrument HP MS API-ES, positive ion mode Mass Range: 150-1500 Fragmentor: 100 Gain: 1.0 Treshold: 150 Step size: 0.20 Gas Temperature: 350° C. Drying Gas Flow: 13 L/min Nebulizer Pressure: 35 psig Capillary Voltage Positive 4000 V • Negative 4000 V Sample Preparation: a) For Stability Assay in Buffer Solutions
Compounds are dissolved in CH3CN to produce a 1 mg/mL stock solution. The stock solution is diluted to a concentration of 0.2 mg/mL (1 mL solution in 4 mL buffer) with appropriate buffer to produce a working solution.
Each solution at each pH is then dispatched into vials that are sealed and stored at room temperature in order to be analyzed at the proper time point. Before analysis, pH values of prepared sample solutions are checked and adjusted if neccessary.

[2] = In vitro stability in human whole blood; assay type: in vitro ADME; settings: 37° C., 2000 ng/mL, over 24 hours
Protocol: (§1) An in vitro stability study in human whole blood and plasma is carried out over 24 hours at 37° C. Drug-free freshly collected human blood (CPD—citrate-phosphate-dextrose is used for all blood collections as anticoagulant) and plasma are spiked with a previously prepared standard solution of test compound to a final concentration of 2000 ng/mL. For each compound blood and plasma are spiked in duplicate and incubated for 24 hours. Two separate aliquots of blood or plasma (50 μL) are sampled from each incubation mixture at 0, 15, 30, 60, 120, 240 and 1440 minutes. All aliquots are mixed with an equal volume of water (50 μL) and extracted with 300 μL of acetonitrile/methanol (2:1) containing internal standard (roxithromycin). The samples are then vortexed, centrifuged and analysed by LC/MS/MS (MRM mode). Results are expressed as the percentage of compound remaining, expressed as the ratio of analyte/internal standard.

[3] = In vitro stability in human plasma; assay type: in vitro ADME; settings: 37° C., 2000 ng/mL, over 24 hours
Protocol: as §1

CC[C@H]1OC(=O)[C@H](C)[C@@H](O[C@H]2C[C@@](C)(OC)[C@@H](OC(=O)CN(CC)CC)[C@H](C)O2)[C@H](C)[C@@H](O[C@@H]2O[C@H](C)C[C@H](N(C)C)[C@H]2O)[C@](C)(OC)C[C@@H](C)C(=O)N[C@H](C)[C@@H](O)[C@]1(C)O [Example 3, 4″-O-(2-diethylaminoethanoyl)-6-O-methyl-9a-aza-9a-homoerythromycin A]
99.6 Area %: Percentage (Area %) of the compound observed in buffers ([1]; pH 2, 25° C., 12 h) | Percentage (Area %) of the compound observed in buffers ([1]; pH 2, 25° C., 14 h) | Percentage (Area %) of the compound observed in buffers ([1]; pH 2, 25° C., 18 h) | Percentage (Area %) of the compound observed in buffers ([1]; pH 3, 25° C., 4 h) | Percentage (Area %) of the compound observed in buffers ([1]; pH 3, 25° C., 12 h) | Percentage (Area %) of the compound observed in buffers ([1]; pH 3, 25° C., 20 h)
99.0 Area %: Percentage (Area %) of the compound observed in buffers ([1]; pH 4, 25° C., 4 h)
98.2 Area %: Percentage (Area %) of the compound observed in buffers ([1]; pH 8, 25° C., 22 h) | Percentage (Area %) of the compound observed in buffers ([1]; pH 8, 25° C., 24 h)
98.4 Area %: Percentage (Area %) of the compound observed in buffers ([1]; pH 8, 25° C., 18 h)
100 Area %: Percentage (Area %) of the compound observed in buffers ([1]; pH 2, 25° C., Initial) | Percentage (Area %) of the compound observed in buffers ([1]; pH 3, 25° C., Initial) | Percentage (Area %) of the compound observed in buffers ([1]; pH 4, 25° C., Initial) | Percentage (Area %) of the compound observed in buffers ([1]; pH 5, 25° C., 2 h) | Percentage (Area %) of the compound observed in buffers ([1]; pH 5, 25° C., Initial) | Percentage (Area %) of the compound observed in buffers ([1]; pH 6, 25° C., 2 h) | Percentage (Area %) of the compound observed in buffers ([1]; pH 6, 25° C., 4 h) | Percentage (Area %) of the compound observed in buffers ([1]; pH 6, 25° C., 6 h) | Percentage (Area %) of the compound observed in buffers ([1]; pH 6, 25° C., 8 h) | Percentage (Area %) of the compound observed in buffers ([1]; pH 6, 25° C., Initial) | Percentage (Area %) of the compound observed in buffers ([1]; pH 7, 25° C., 2 h) | Percentage (Area %) of the compound observed in buffers ([1]; pH 7, 25° C., Initial) | Percentage (Area %) of the compound observed in buffers ([1]; pH 8, 25° C., Initial)
98.7 Area %: Percentage (Area %) of the compound observed in buffers ([1]; pH 7, 25° C., 24 h)
99.2 Area %: Percentage (Area %) of the compound observed in buffers ([1]; pH 4, 25° C., 8 h) | Percentage (Area %) of the compound observed in buffers ([1]; pH 4, 25° C., 12 h) | Percentage (Area %) of the compound observed in buffers ([1]; pH 4, 25° C., 14 h) | Percentage (Area %) of the compound observed in buffers ([1]; pH 4, 25° C., 18 h) | Percentage (Area %) of the compound observed in buffers ([1]; pH 4, 25° C., 24 h)
98.3 Area %: Percentage (Area %) of the compound observed in buffers ([1]; pH 8, 25° C., 20 h)
99.8 Area %: Percentage (Area %) of the compound observed in buffers ([1]; pH 3, 25° C., 2 h) | Percentage (Area %) of the compound observed in buffers ([1]; pH 3, 25° C., 8 h) | Percentage (Area %) of the compound observed in buffers ([1]; pH 3, 25° C., 14 h) | Percentage (Area %) of the compound observed in buffers ([1]; pH 5, 25° C., 20 h) | Percentage (Area %) of the compound observed in buffers ([1]; pH 6, 25° C., 14 h) | Percentage (Area %) of the compound observed in buffers ([1]; pH 7, 25° C., 18 h)
99.1 Area %: Percentage (Area %) of the compound observed in buffers ([1]; pH 4, 25° C., 2 h) | Percentage (Area %) of the compound observed in buffers ([1]; pH 4, 25° C., 6 h) | Percentage (Area %) of the compound observed in buffers ([1]; pH 4, 25° C., 22 h)
99.9 Area %: Percentage (Area %) of the compound observed in buffers ([1]; pH 5, 25° C., 4 h) | Percentage (Area %) of the compound observed in buffers ([1]; pH 5, 25° C., 6 h) | Percentage (Area %) of the compound observed in buffers ([1]; pH 5, 25° C., 8 h) | Percentage (Area %) of the compound observed in buffers ([1]; pH 5, 25° C., 12 h) | Percentage (Area %) of the compound observed in buffers ([1]; pH 5, 25° C., 14 h) | Percentage (Area %) of the compound observed in buffers ([1]; pH 5, 25° C., 18 h) | Percentage (Area %) of the compound observed in buffers ([1]; pH 5, 25° C., 22 h) | Percentage (Area %) of the compound observed in buffers ([1]; pH 5, 25° C., 24 h) | Percentage (Area %) of the compound observed in buffers ([1]; pH 6, 25° C., 12 h) | Percentage (Area %) of the compound observed in buffers ([1]; pH 7, 25° C., 4 h) | Percentage (Area %) of the compound observed in buffers ([1]; pH 7, 25° C., 6 h) | Percentage (Area %) of the compound observed in buffers ([1]; pH 7, 25° C., 8 h) | Percentage (Area %) of the compound observed in buffers ([1]; pH 8, 25° C., 2 h) | Percentage (Area %) of the compound observed in buffers ([1]; pH 8, 25° C., 4 h) | Percentage (Area %) of the compound observed in buffers ([1]; pH 8, 25° C., 6 h)
98.9 Area %: Percentage (Area %) of the compound observed in buffers ([1]; pH 4, 25° C., 20 h)
99.7 Area %: Percentage (Area %) of the compound observed in buffers ([1]; pH 3, 25° C., 18 h) | Percentage (Area %) of the compound observed in buffers ([1]; pH 6, 25° C., 20 h) | Percentage (Area %) of the compound observed in buffers ([1]; pH 6, 25° C., 22 h) | Percentage (Area %) of the compound observed in buffers ([1]; pH 6, 25° C., 24 h) | Percentage (Area %) of the compound observed in buffers ([1]; pH 7, 25° C., 12 h) | Percentage (Area %) of the compound observed in buffers ([1]; pH 7, 25° C., 14 h) | Percentage (Area %) of the compound observed in buffers ([1]; pH 7, 25° C., 22 h) | Percentage (Area %) of the compound observed in buffers ([1]; pH 8, 25° C., 8 h)
99.4 Area %: Percentage (Area %) of the compound observed in buffers ([1]; pH 2, 25° C., 2 h) | Percentage (Area %) of the compound observed in buffers ([1]; pH 3, 25° C., 22 h) | Percentage (Area %) of the compound observed in buffers ([1]; pH 3, 25° C., 24 h) | Percentage (Area %) of the compound observed in buffers ([1]; pH 8, 25° C., 14 h)
showed stability: stability in buffers pH 2 to 8 ([1]; 25° C., during 24 hours)
stable: stability in whole blood [2] | stability in plasma [3]
99.5 Area %: Percentage (Area %) of the compound observed in buffers ([1]; pH 2, 25° C., 4 h) | Percentage (Area %) of the compound observed in buffers ([1]; pH 2, 25° C., 6 h) | Percentage (Area %) of the compound observed in buffers ([1]; pH 2, 25° C., 8 h) | Percentage (Area %) of the compound observed in buffers ([1]; pH 2, 25° C., 20 h) | Percentage (Area %) of the compound observed in buffers ([1]; pH 2, 25° C., 22 h) | Percentage (Area %) of the compound observed in buffers ([1]; pH 2, 25° C., 24 h) | Percentage (Area %) of the compound observed in buffers ([1]; pH 3, 25° C., 6 h) | Percentage (Area %) of the compound observed in buffers ([1]; pH 8, 25° C., 12 h)
98.8 Area %: Percentage (Area %) of the compound observed in buffers ([1]; pH 7, 25° C., 20 h)

— US8227428B2, “Anti-infammatory macrolide” (Glaxo Group Limited, priority 2009, dated 2012)
